Results: US20260242398A1, “BENZOPYRIMIDIN-4(3H)-ONES AS PI3K INHIBITORS” (OnKure, Inc., priority 2022, published 2026)
Where two headings read alike, the source gives them in different places.

What was measured:
Format in all cases: cell-based
[1] = tested on: phosphorylation of AKT (pAKT) in SKBR3 cells express WT PI3Ka; experiment: In vitro cell pAKT (Ser473) HTRF, SKBR3 cells
Experimental: (§1) In Vitro Cell pAKT: Determination of IC50 Values for Inhibition of Phosphorylation of AKT (pAKT) in T47D Cells Expressing Mutant PI3Ka (H1047R) Mutation and SKBR3 Cells Express WT PI3Ka.
(§2) T47D or SKBR3 cells were trypsinized, resuspended in culture media and seeded onto assay ready plates. T47D culture media consisted of RPMI, 10% FBS and Insulin (0.2 units/mL). SKBR3 culture media consisted of McCoy's 5a and 10% FBS. Cells were seeded at a density of 5000 cells/well and dispensed in 12.5 uL onto 384 well assay ready plates (Perkin Elmer, 6008238)). Assay ready plates had previously been stamped with 10-point dilutions of compounds of interest, as well as controls. The Echo655 is used to stamp plates at 12.5 nL of compound or DMSO. Cells were grown for 6 hour at 37° Celsius and 5% CO2. After 6 hour, 4 uL of Lysis buffer reagent was added to the plate, which was then centrifuged for 1 minute at 1000 rpm. Then the plate was incubated at room temperature for 30 minutes. After 30 minutes, 4 uL of antibody mix containing Eu Cryptate, d2 Cryptate, and detection buffer, was added to the plate. The plate was centrifuged for 1 minute at 1000 rpm and then incubated overnight at room temperature. The plate was read on an Envision plate reader using the HTRF protocol. The percentage of inhibition of AKT phosphorylation was calculated using the following formula: % Inhibition=100×(pAKTHC−pAKTSample)/(pAKTHC−pAKTLC)), where pAKTHC is obtained from cells treated with 0.1% DMSO only; pAKTLC is obtained from cells treated with 10 uM Alpelisib. The IC50 (concentration achieving 50% inhibition of pAKT) is calculated by fitting the Curve using XWfit (v5.3.1.3), equation 201: Y=Bottom+(Top−Bottom)/(1+10^((Log IC50−X)*HillSlope)).

[2] = tested on: SKBR3 cells express WT PI3Ka; experiment: In vitro cell proliferation (CellTiter-Glo, 72 hours), SKBR3 cells
Experimental: (§3) In Vitro Cell Proliferation: Determination of EC50 Values for Inhibition of Proliferation in T47D Cells Expressing Mutant PI3Ka (H1047R) Mutation and SKBR3 Cells Express WT PI3Ka.
(§4) T47D or SKBR3 cells were trypsinized, resuspended in culture media and seeded onto assay ready plates. T47D culture media consisted of RPMI, 10% FBS and Insulin (0.2 units/mL). SKBR3 culture media consisted of McCoys 5a and 10% FBS. Cells were seeded at a density of 1,500 cells/well and dispensed in 50 uL onto 384 well assay ready plates (Corning, 89089-790). Assay ready plates had previously been stamped with 10-point dilutions of compounds of interest, as well as controls. The Echo655 is used to stamp plates at 40 nL of compound or DMSO. Cells were grown for 72 hours at 37° Celsius and 5% CO2. After 72 hours, cells were equilibrated at room temperature for 15 minutes. 30 uL of CellTiter-Glo reagent is added to the plate, which is then shaken for 30 minutes at temperature at 300-500 rpm. Cells are then read on an Envision plate reader. The percentage of inhibition of proliferation was calculated using the following formula: % Inhibition=100×(LumD−LumSample)/(LumD−LumInh), where D is obtained from cells treated with 0.1% DMSO only; Inh is obtained from cells treated with 10 uM Alpelisib. The effective concentration achieving 50% inhibition of proliferation (EC50) is calculated by fitting the Curve using XWfit (v5.3.1.3), equation 201: Y=Bottom+(Top−Bottom)/(1+10^((Log EC50−X)*HillSlope)).

[3] = tested on: phosphorylation of AKT (pAKT) in T47D cells expressing mutant PI3Ka (H1047R); experiment: In vitro cell pAKT (Ser473) HTRF, T47D cells
Experimental: as §1, §2

[4] = tested on: T47D cells expressing mutant PI3Ka (H1047R); experiment: In vitro cell proliferation (CellTiter-Glo, 72 hours), T47D cells; conditions: inhibition of proliferation, read-out: Avg T-47D EC50
Experimental: as §3, §4

[5] = read-out: Avg T-47D IC50, inhibition of pAKT, 6 hour
[6] = Homo sapiens, SK-BR-3, 6 h, inhibition of pAKT
[7] = Homo sapiens, SK-BR-3, 72 h, inhibition of proliferation
[8] = inhibition of pAKT, 6 hour, read-out: Avg T-47D IC50

In the case of `Cc1cc(C(C)Nc2ccccc2C(=O)O)c2nc(N3CC[Si](C)(C)CC3)n(C)c(=O)c2c1` (single isomer, unassigned) [Example 1, 2-((1-(2-(4,4-dimethyl-1,4-azasilinan-1-yl)-3,6-dimethyl-4-oxo-3,4-dihydroquinazolin-8-yl)ethyl)amino)benzoic acid], the IC50 ([1]; Homo sapiens, SK-BR-3, inhibition of pAKT, 6 hour) is reported as over 15 µM, the EC50 ([2]; Homo sapiens, SK-BR-3, inhibition of proliferation) is reported as 2 to 15 µM and the IC50 [3, 5] is reported as 0.001 to 1 µM. It also gave an EC50 [4] of 0.5 to 2 µM.
For `Cc1cc(C(C)Nc2ccccc2C(=O)O)c2nc(N3CC[Si](C)(C)CC3)n(C)c(=O)c2c1` (single isomer, unassigned) [Example 2, 2-((1-(2-(4,4-dimethyl-1,4-azasilinan-1-yl)-3,6-dimethyl-4-oxo-3,4-dihydroquinazolin-8-yl)ethyl)amino)benzoic acid], the IC50 ([1]; inhibition of pAKT, 6 hour) was over 15 µM, the EC50 ([2]; inhibition of proliferation) was 2 to 15 µM and the IC50 [3, 5] was over 15 µM. It also gave an EC50 [4] of 2 to 15 µM.
For `Cc1cc(C(C)Nc2ccccc2C(=O)O)c2nc(N3CCCC(C)(C)C3)n(C)c(=O)c2c1` (single isomer, unassigned) [Example 3, 2-((1-(2-(3,3-dimethylpiperidin-1-yl)-3,6-dimethyl-4-oxo-3,4-dihydroquinazolin-8-yl)ethyl)amino)benzoic acid], the IC50 [1, 6] was over 15 µM, the EC50 [2, 7] was over 15 µM and the IC50 [3, 8] was 1 to 5 µM. The EC50 [4] was 0.5 to 2 µM.
Molecule `Cc1cc(C(C)Nc2ccccc2C(=O)O)c2nc(N3CCCC(C)(C)C3)n(C)c(=O)c2c1` (single isomer, unassigned) [Example 4, 2-((1-(2-(3,3-dimethylpiperidin-1-yl)-3,6-dimethyl-4-oxo-3,4-dihydroquinazolin-8-yl)ethyl)amino)benzoic acid] has an IC50 ([1]; inhibition of pAKT, 6 hour) of over 15 µM, an EC50 ([2]; inhibition of proliferation) of over 15 µM and an IC50 [3, 8] of over 15 µM. The EC50 [4] was 2 to 15 µM.
For `Cc1cc(C(C)Nc2ccccc2C(=O)O)c2nc(N3CC4(CCCCC4)C3)n(C)c(=O)c2c1` (single isomer, unassigned) [Example 5, 2-((1-(3,6-dimethyl-4-oxo-2-(2-azaspiro[3.5]nonan-2-yl)-3,4-dihydroquinazolin-8-yl)ethyl)amino)benzoic acid], the IC50 ([1]; inhibition of pAKT, 6 hour) was over 15 µM, the EC50 ([2]; inhibition of proliferation) was over 15 µM and the IC50 [3, 8] was 1 to 5 µM. The EC50 [4] was 2 to 15 µM.
Work on `Cc1cc(C(C)Nc2ccccc2C(=O)O)c2nc(N3CC4(CCCCC4)C3)n(C)c(=O)c2c1` (single isomer, unassigned) [Example 6, 2-((1-(3,6-dimethyl-4-oxo-2-(2-azaspiro[3.5]nonan-2-yl)-3,4-dihydroquinazolin-8-yl)ethyl)amino)benzoic acid] yielded an IC50 [1, 6] of over 15 µM, an EC50 [2, 7] of over 15 µM and an IC50 [3, 8] of over 15 µM. For the same molecule, the EC50 [4] was over 15 µM.
`COc1ccc2c(c1)CN(c1nc3c(C(C)Nc4ccccc4C(=O)O)cc(C)cc3c(=O)n1C)C2` (single isomer, unassigned) [Example 7, 2-((1-(2-(5-methoxyisoindolin-2-yl)-3,6-dimethyl-4-oxo-3,4-dihydroquinazolin-8-yl)ethyl)amino)benzoic acid] gave an IC50 [1, 6] of over 15 µM, an EC50 [2, 7] of over 15 µM and an IC50 [3, 8] of 0.001 to 1 µM. It also gave an EC50 [4] of 0.5 to 2 µM.
`COc1ccc2c(c1)CN(c1nc3c(C(C)Nc4ccccc4C(=O)O)cc(C)cc3c(=O)n1C)C2` (single isomer, unassigned) [Example 8, 2-((1-(2-(5-methoxyisoindolin-2-yl)-3,6-dimethyl-4-oxo-3,4-dihydroquinazolin-8-yl)ethyl)amino)benzoic acid] was tested, and the IC50 ([1]; inhibition of pAKT, 6 hour) was over 15 µM, the EC50 ([2]; inhibition of proliferation) was over 15 µM and the IC50 [3, 8] was over 15 µM. The EC50 [4] was over 15 µM.
`Cc1cc(C(C)Nc2ccccc2C(=O)O)c2nc(N3Cc4ccc(Cl)cc4C3)n(C)c(=O)c2c1` (single isomer, unassigned) [Example 9, 2-((1-(2-(5-chloroisoindolin-2-yl)-3,6-dimethyl-4-oxo-3,4-dihydroquinazolin-8-yl)ethyl)amino)benzoic acid] showed an IC50 [1, 6] of over 15 µM, an EC50 ([2]; inhibition of proliferation) of over 15 µM and an IC50 [3, 8] of 1 to 5 µM. For the same molecule, the EC50 [4] was 0.5 to 2 µM.
Work on `Cc1cc(C(C)Nc2ccccc2C(=O)O)c2nc(N3Cc4ccc(Cl)cc4C3)n(C)c(=O)c2c1` (single isomer, unassigned) [Example 10, 2-((1-(2-(5-chloroisoindolin-2-yl)-3,6-dimethyl-4-oxo-3,4-dihydroquinazolin-8-yl)ethyl)amino)benzoic acid] yielded an IC50 ([1]; inhibition of pAKT, 6 hour) of over 15 µM, an EC50 ([2]; inhibition of proliferation) of 2 to 15 µM and an IC50 [3, 8] of over 15 µM. It also gave an EC50 [4] of 2 to 15 µM.
In the case of `Cc1cc(C(C)Nc2ccccc2C(=O)O)c2nc(OCC(C)C)n(C)c(=O)c2c1` (single isomer, unassigned) [Example 11, 2-((1-(2-isobutoxy-3,6-dimethyl-4-oxo-3,4-dihydroquinazolin-8-yl)ethyl)amino)benzoic acid], the IC50 [1, 6] is reported as over 15 µM, the EC50 [2, 7] is reported as over 15 µM and the IC50 [3, 8] is reported as 1 to 5 µM. The EC50 [4] was 0.5 to 2 µM.
For `Cc1cc(C(C)Nc2ccccc2C(=O)O)c2nc(OCC(C)C)n(C)c(=O)c2c1` (single isomer, unassigned) [Example 12, 2-((1-(2-isobutoxy-3,6-dimethyl-4-oxo-3,4-dihydroquinazolin-8-yl)ethyl)amino)benzoic acid], the IC50 ([1]; inhibition of pAKT, 6 hour) was over 15 µM, the EC50 ([2]; inhibition of proliferation) was over 15 µM and the IC50 [3, 8] was over 15 µM. It also gave an EC50 [4] of 2 to 15 µM.
With `Cc1cc(C(C)Nc2ccc(Cl)cc2C(=O)O)c2nc(N3Cc4ccc(F)cc4C3)n(C)c(=O)c2c1` (single isomer, unassigned) [Example 13, 5-chloro-2-((1-(2-(5-fluoroisoindolin-2-yl)-3,6-dimethyl-4-oxo-3,4-dihydroquinazolin-8-yl)ethyl)amino)benzoic acid] the IC50 [1, 6] was over 15 µM, the EC50 ([2]; inhibition of proliferation) was over 15 µM and the IC50 [3, 8] was over 15 µM. The EC50 [4] was 2 to 15 µM.
Molecule `Cc1cc(C(C)Nc2ccc(Cl)cc2C(=O)O)c2nc(N3Cc4ccc(F)cc4C3)n(C)c(=O)c2c1` (single isomer, unassigned) [Example 14, 5-chloro-2-((1-(2-(5-fluoroisoindolin-2-yl)-3,6-dimethyl-4-oxo-3,4-dihydroquinazolin-8-yl)ethyl)amino)benzoic acid] has an IC50 ([1]; inhibition of pAKT, 6 hour) of over 15 µM, an EC50 ([2]; inhibition of proliferation) of 2 to 15 µM and an IC50 [3, 8] of 1 to 5 µM. The EC50 [4] was 0.001 to 0.5 µM.
In the case of `Cc1cc(C(C)Nc2ccc(C#N)cc2C(=O)O)c2nc(N3CCC(C)(C)CC3)n(C)c(=O)c2c1` (single isomer, unassigned) [Example 15, 5-cyano-2-((1-(2-(4,4-dimethylpiperidin-1-yl)-3,6-dimethyl-4-oxo-3,4-dihydroquinazolin-8-yl)ethyl)amino)benzoic acid], the EC50 [2, 7] is reported as 2 to 15 µM and the EC50 ([4]; Homo sapiens, T47D, 72 h) is reported as 2 to 15 µM.
Work on `Cc1cc(C(C)Nc2ccc(C#N)cc2C(=O)O)c2nc(N3CCC(C)(C)CC3)n(C)c(=O)c2c1` (single isomer, unassigned) [Example 16, 5-cyano-2-((1-(2-(4,4-dimethylpiperidin-1-yl)-3,6-dimethyl-4-oxo-3,4-dihydroquinazolin-8-yl)ethyl)amino)benzoic acid] yielded an EC50 ([2]; inhibition of proliferation) of 2 to 15 µM and an EC50 [4] of 2 to 15 µM.
Work on `Cc1cc(C(C)Nc2ccccc2C(=O)O)c2nc(N3Cc4ccc(C(N)=O)cc4C3)n(C)c(=O)c2c1` (centres unmarked) [Example 19, 2-((1-(2-(5-carbamoylisoindolin-2-yl)-3,6-dimethyl-4-oxo-3,4-dihydroquinazolin-8-yl)ethyl)amino)benzoic acid] yielded an EC50 [2, 7] of over 15 µM and an EC50 ([4]; Homo sapiens, T47D, 72 h) of 0.5 to 2 µM.
